The supplement of paper PMC10307832

Legend:
Test in all cases: relative viability (nuclei count vs DMSO), 5 days (fraction); higher = more cells survive
AZ628 + Bortezomib = compound: CC1=C(C=C(C=C1)NC(=O)C2=CC(=CC=C2)C(C)(C)C#N)NC3=CC4=C(C=C3)N=CN(C4=O)C [AZ628] + CC(C)C[C@H](NC(=O)[C@H](Cc1ccccc1)NC(=O)c1cnccn1)B(O)O [Bortezomib] (partner 0.002 µM)
Summary of the method: (§1)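 A single step with final 0.05% Triton X-100, 1% formaldehyde and 1 ug/ml Hoechst fixed the cells and stained nuclei 5 days after treatment. Lung cancer cell lines in 1536-well plates had been treated by pin tool the day after seeding with one drug alone or a fixed anchor-drug dose plus five library-drug doses (not always all listed) in √10 steps, and nuclei were counted on 4× images. Relative viability is the ratio of nuclei in treated wells to nuclei in vehicle wells, taken as the median of duplicate plates.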

AZ628 + Luminespib = compound: CC1=C(C=C(C=C1)NC(=O)C2=CC(=CC=C2)C(C)(C)C#N)NC3=CC4=C(C=C3)N=CN(C4=O)C [AZ628] + CCNC(=O)c1noc(-c2cc(C(C)C)c(O)cc2O)c1-c1ccc(CN2CCOCC2)cc1 [Luminespib] (partner 0.01 µM)
Summary of the method: as §1

[1] = compound: C[As](C)SC[C@H](NC(=O)CC[C@H](N)C(=O)O)C(=O)NCC(=O)O [Darinaparsin] + CCNC(=O)c1noc(-c2cc(C(C)C)c(O)cc2O)c1-c1ccc(CN2CCOCC2)cc1 [Luminespib] (partner 0.01 µM)
Summary of the method: as §1

QS11 + Pemetrexed = compound: C1CC2=C(C1)C=C(C=C2)OC3=NC(=C4C(=N3)N(C=N4)CC5=CC=C(C=C5)C6=CC=CC=C6)N[C@@H](CC7=CC=CC=C7)CO [QS11] + Nc1nc2[nH]cc(CCc3ccc(C(=O)N[C@@H](CCC(=O)O)C(=O)O)cc3)c2c(=O)[nH]1 [Pemetrexed] (partner 0.2 µM)
Summary of the method: as §1

Row | Cell Line | relative viability (AZ628 + Bortezomib; first compound 0.08 µM) | relative viability (AZ628 + Bortezomib; first compound 0.253 µM) | relative viability (AZ628 + Bortezomib; first compound 0.8 µM) | relative viability (AZ628 + Bortezomib; first compound 2.53 µM) | relative viability (AZ628 + Bortezomib; first compound 8 µM) | relative viability (AZ628 + Luminespib; first compound 0.08 µM) | relative viability (AZ628 + Luminespib; first compound 0.253 µM) | relative viability (AZ628 + Luminespib; first compound 0.8 µM) | relative viability (AZ628 + Luminespib; first compound 2.53 µM) | relative viability (AZ628 + Luminespib; first compound 8 µM) | relative viability ([1]; first compound 0.08 µM) | relative viability ([1]; first compound 0.8 µM) | relative viability ([1]; first compound 2.53 µM) | relative viability ([1]; first compound 8 µM) | relative viability (QS11 + Pemetrexed; first compound 0.08 µM) | relative viability (QS11 + Pemetrexed; first compound 0.253 µM) | relative viability (QS11 + Pemetrexed; first compound 0.8 µM) | relative viability (QS11 + Pemetrexed; first compound 2.53 µM) | relative viability (QS11 + Pemetrexed; first compound 8 µM)
1 | HCC-827 | 1.04 | 1.03 | 1.03 | 1.01 | 1.07 | 0.698 | 0.5 | 0.588 | 0.701 | 0.623 | 0.812 | 0.704 | 0.59 | 0.936 | 0.262 | 0.274 | 0.258 | 0.257 | 0.35
2 | LXF-289 | 0.994 | 1.03 | 0.915 | 0.917 | 0.648 | 0.672 | 0.67 | 0.681 | 0.653 | 0.544 | 0.773 | 0.499 | 0.578 | 1.06 | 0.873 | 0.931 | 0.761 | 0.9 | 0.876
3 | NCI-H322M | 1.36 | 1.46 | 1.28 | 1.38 | 1.11 | 0.924 | 0.815 | 0.935 | 0.79 | 0.549 | 1.01 | 0.859 | 0.596 | 0.839 | 0.556 | 0.59 | 0.66 | 0.822 | 0.735
4 | NCI-H2126 | 1.16 | 1 | 1.13 | 1.17 | 1.18 | 1 | 0.902 | 0.968 | 0.933 | 0.97 | 0.984 | 1.02 | 0.722 | 0.931 | 0.623 | 0.681 | 0.604 | 0.565 | 0.59
5 | NCI-H2405 | 0.756 | 0.864 | 0.548 | 0.68 | 1.09 | 0.366 | 0.425 | 0.411 | 0.365 | 0.355 | 0.822 | 0.611 | 0.61 | 0.689 | 1.01 | 1.02 | 0.974 | 1.05 | 1.05
6 | NCI-H520 | 0.732 | 0.476 | 0.502 | 0.591 | 0.571 | 0.21 | 0.219 | 0.209 | 0.219 | 0.203 | 0.219 | 0.21 | 0.222 | 0.192 | 0.791 | 0.871 | 0.863 | 0.783 | 0.488
7 | NCI-H2228 | 0.936 | 1.03 | 0.909 | 0.963 | 0.929 | 0.119 | 0.133 | 0.18 | 0.195 | 0.14 | 0.162 | 0.206 | 0.135 | 0.102 | 0.342 | 0.337 | 0.324 | 0.374 | 0.372
8 | EKVX | 1.17 | 1.11 | 1.21 | 1.09 | 0.603 | 0.892 | 0.857 | 0.946 | 0.954 | 0.864 | 0.872 | 0.924 | 0.926 | 0.962 | 0.385 | 0.412 | 0.412 | 0.356 | 0.345
